In ChEMBL document CHEMBL5375945, “Structure-Guided Design of a Domain-Selective Bromodomain and Extra Terminal N-Terminal Bromodomain Chemical Probe” (J Med Chem, 2023):
pIC50: −log10 of the molar value.

Key:
[1] = target: T1, Bromodomain-containing protein 4 (Homo sapiens, UniProt O60885); assay: Inhibition of BRD4 BD1 (unknown origin) by TR-FRET assay
[2] = target: T1, Bromodomain-containing protein 4; assay: Inhibition of BRD4 BD2 (unknown origin) by TR-FRET assay

pIC50 [1]	pIC50 [2]	SMILES
7.50	6.30	CC(=O)N1CCC[C@H](Cn2c(-c3cc(C)c(=O)n(C)c3)nc3ccccc32)C1
8.00	6.30	CC(=O)N1CCC[C@@H](Cn2c(-c3cc(C)c(=O)n(C)c3)nc3cc(Br)ccc32)C1
–	6.20	CC(=O)N1CCC[C@@H](Cn2c(-c3cc(C)c(=O)n(C)c3)nc3ccccc32)C1
